Experimental data reported in paper PMC8129988 (Inorganic Chemistry Frontiers, 2021).
Counter-ions that a name gives are not always drawn.

Legend:
Type in all cases: cell-based, human
UM-UC-14 cells = assay: MTT vitality assay, 72 h; settings: TFA up to 25 μM
Procedure: The sensitizing effect in this cell model was more pronounced for Co(acac)2LPonvs.Co(Meacac)2LPon reflecting the differences in the reduction potentials. Purification of the novel compounds was performed in the presence of 0.1% TFA, leading to the respective TFA salts.
As mentioned above, two stereoisomers of Co(acac)2LPon could be isolated. To clarify, whether there are differences in their anticancer activity, they were analyzed (in addition to the isomeric mixture) in UM-UC-14 cells by MTT assay. […] Accordingly, values for the isomeric mixture positioned intermediate. As expected, both stereoisomers and the isomeric mixture were distinctly activated by hypoxic conditions. The moderately higher activity of isomer 1 remained also under hypoxic conditions (Fig. S12A ^†). […]
Cells were seeded (3–7 × 10^4 cells per well) in 96-well plates and after 24 h recovery treated with increasing concentrations of compounds in triplicates. After 72 h drug exposure under normoxic or hypoxic cell culture conditions (0.1% O2) (ProOx Model C21 system, BioSpherix), the proportion of viable cells was determined by 3-(4,5-dimethylthiazol-2-yl)-2,5-diphenyltetrazolium bromide (MTT)-vitality assay (EZ4U, Biomedica, Vienna, Austria) or by luminescence assay based on adenosine triphosphate quantification (CellTiter-Glo, Promega, Madison, Wisconsin) following the manufacturer's recommendations. […]

[1] = test system: FGFR3-driven UM-UC-14 urothelial cancer cell model; assay: colony formation assay, 5 d; settings: normoxic
Procedure: In order to investigate the impact of long-term oxygen restriction, clonogenic assays were performed in the FGFR3-dependent UM-UC-14 cell model (Fig. 9C).
UM-UC-14 cells were seeded at low densities of 3 × 10^3 cells per well in 24-well plates in 500 μL and after 24 h recovery treated with 100 μL of increasing concentrations of compounds in duplicates. Following drug exposure time of 5 days under normoxic or hypoxic (0.1% O2) culture conditions, cells were washed with phosphate-buffered saline (PBS), fixed with ice-cold methanol for 30 min at 4 °C and stained with crystal violet. Digital photographs were taken using a Nikon D3200 camera and processed with ImageJ software. For quantification, crystal violet was eluted using 2% sodium dodecyl sulfate (SDS) and color absorbance was measured at 560 nm at the Tecan infinite 200Pro (Zurich, Switzerland). Values are given in arbitrary units (a.u.) as mean ± SD normalized to untreated control.

[2] = test system: p-ERK1/2 and p-S6 in K-562 cells; assay: western blot of downstream signalling, 12 h; settings: K-562, 12 h, western blot
Procedure: Fig. 10 Impact of the cobalt(III) complexes on the ERK1/2 and S6 under normoxic and hypoxic conditions. K-562 cells were treated with the compounds, after 12 h cell lysates were prepared and protein expression as well as phosphorylation levels of downstream pathways (p-ERK1/2 and p-S6) analyzed by western blotting. One representative experiment out of three is shown. The ratio of phosphorylated to total protein is given between the respective lanes.
K-562 cells were plated (5 × 10^5 cells per well) in 6-well plates and allowed to recover for 24 h. Subsequently, the cells were treated with the drugs in different concentrations. After 12 h cells were harvested, proteins were isolated, resolved by sodium dodecyl sulfate polyacrylamide gel electrophoresis (SDS/PAGE), and transferred onto a polyvinylidene difluoride membrane for western blotting. The following antibodies were used: ERK1/2 (p44/42) rabbit monoclonal antibody (mAb) (137F5, #4695), phospho-ERK1/2 rabbit mAb (Thr202/Tyr204) (20G11, #4376), phospho-S6 rabbit pAb (Ser240/244, #2215) (Cell Signaling Technology, Beverly, MA, USA), S6 mouse mAb (C-8. #sc-74459) (Santa Cruz Biotechnology, TX, USA) and β-actin mouse mAb (#A5441, Sigma). All primary antibodies were used in 1 : 1000 dilutions (in Tris-buffered saline containing 0.1% Tween20 (TBST) + 3% bovine serum albumin (BSA)). Secondary goat anti-mouse-IgG (Fc specific)-peroxidase antibody (#A0168, Sigma) and horseradish peroxidase(HRP)-labeled mouse anti-rabbit IgG (#sc-2357, Santa Cruz Biotechnology) were used at working dilutions of 1 : 10 000 (in TBST + 1% BSA).

Row | SMILES | impact on cell viability (UM-UC-14 cells) | inhibition of clonogenic cell growth [1] | activity on ERK1/2 and S6 phosphorylation, normoxic vs hypoxic [2]
1 | O=C(O)C(F)(F)F [TFA, trifluoroacetic acid] | no impact on cell viability |  | 
2 | Cc1ccc(C(=O)Nc2ccc(CN3CCN(C)CC3)c(C(F)(F)F)c2)cc1C#Cc1cnc2cccnn12 [ponatinib, reference compound] |  | 95% | equally active under the two oxygen conditions
